PubChem BioAssay (NCI)
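Step 1: Grow cells in 96-well plates. Step 2: Expose to compound for 48 hours at 5 concentrations. Step 3: Interpolate endpoints linearly; if unreached, use highest concentration. TGI denotes the concentration required for complete inhibition of growth.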

Experiments:
Assay in all cases: NCI-60 cell line screen, 48 h
[1] = tested on: M14 melanoma
[2] = tested on: SK-MEL-5 melanoma
[3] = tested on: SW-620 colon
[4] = tested on: HOP-92 NSCLC
[5] = tested on: HOP-62 NSCLC
[6] = tested on: SK-OV-3 ovarian
[7] = tested on: NCI-H522 lung
[8] = tested on: SK-MEL-2 melanoma
[9] = tested on: OVCAR-3 ovarian
[10] = tested on: LOX IMVI melanoma
[11] = tested on: OVCAR-8 ovarian
[12] = tested on: NCI-H226 lung
[13] = tested on: OVCAR-4 ovarian
[14] = tested on: UO-31 renal
[15] = tested on: K-562 leukemia
[16] = tested on: BT-549 breast
[17] = tested on: U251 CNS
[18] = tested on: NCI-H460 lung
[19] = tested on: MALME-3M melanoma
[20] = tested on: HCT-15 colon

SMILES	TGI [1]	TGI [2]	TGI [3]	TGI [4]	TGI [5]	TGI [6]	TGI [7]	TGI [8]	TGI [9]	TGI [10]	TGI [11]	TGI [12]	TGI [13]	TGI [14]	TGI [15]	TGI [16]	TGI [17]	TGI [18]	TGI [19]	TGI [20]
C/C=C1/CN2CCC34C5=CC(=O)C(c6cc7c(cc6OC)N(C)C6=C(C(=O)OC)CC8(CC)CCCN9CCC67C98)=CC5=NC23CCC1C4C(=O)OC (stereo not given)	24.8 µM	28.5 µM	21.8 µM	20.8 µM	31.5 µM	30.9 µM	23.7 µM	30.6 µM	27.4 µM	31 µM	30.2 µM	39 µM	27.1 µM	24.6 µM	15.9 µM	29.7 µM	28.6 µM	30.1 µM	28.6 µM	28.3 µM
COc1cc(O)c2c(=O)c3ccccc3n(C)c2c1	> 100 µM	> 100 µM	> 100 µM	> 100 µM	79 µM	> 100 µM	> 100 µM	> 100 µM	> 100 µM	> 100 µM	> 100 µM	> 100 µM	> 100 µM	> 100 µM	> 100 µM	> 100 µM	> 100 µM	> 100 µM	> 100 µM	> 100 µM
O=C(COC(c1ccc(F)cc1)c1ccc(F)cc1)N1CCN(CCCc2ccccc2)CC1	16.2 µM	6.9 µM	> 100 µM	8.02 µM	19.4 µM	21.5 µM	18.6 µM	15.4 µM	13.7 µM	16.2 µM	14.6 µM	8.73 µM	12.6 µM	3.56 µM	> 100 µM	13.7 µM	14.8 µM	13.5 µM	17.4 µM	11.4 µM
CC(C)(C)C1CCC2c3c([nH]c4ccccc34)C3C(=O)N(c4cccc(Cl)c4)C(=O)C3C2C1 (stereo not given)	28.3 µM	26.3 µM	23.2 µM	18.9 µM	18 µM	63.2 µM	34.5 µM	35.1 µM	33.3 µM	20.8 µM	> 55.6 µM	39.9 µM	58.1 µM	15.1 µM	> 49.6 µM	41.1 µM	38.4 µM	17.7 µM	32.4 µM	42.6 µM
CCOC(=O)c1c(Nc2ccccc2)sc2cccnc12	26.4 µM	24.3 µM	> 100 µM	> 29.3 µM	> 81 µM	> 89.9 µM	> 58.4 µM	49.5 µM	48.7 µM	44.6 µM	64 µM	57.1 µM	79.9 µM	43.4 µM	82.8 µM	58.8 µM	> 57.9 µM	> 88.8 µM	53.4 µM	58.3 µM
O=C(O)C(F)(OC(F)(F)C(F)(F)C(F)(F)F)C(F)(F)F (stereo not given)	> 100 µM	> 100 µM	> 100 µM	> 100 µM	> 100 µM	> 100 µM	> 100 µM	> 100 µM	> 100 µM	> 100 µM	> 100 µM	> 100 µM	> 100 µM	> 100 µM	> 100 µM	> 100 µM	> 100 µM	> 100 µM	> 100 µM	> 100 µM
COC(=O)C1=C(O)C(C(=O)OC)[C@]2(O)[C@H](C(=O)OC)[C@H]1C[C@@H](c1ccccc1OC)[C@H]2C(=O)OC (stereo not given in full)	10.2 µM	13.2 µM	19.6 µM	15.7 µM	39.1 µM	> 50.9 µM	5 µM	20.1 µM	35.4 µM	9.35 µM	11.8 µM	20.7 µM	31.3 µM	21.6 µM	> 38.9 µM	11.2 µM	19.3 µM	> 41.8 µM	13.5 µM	13.5 µM
NC(N)=NS(=O)(=O)c1ccc(Nc2c3ccccc3nc3ccc(C(=O)Nc4ccc(S(N)(=O)=O)cc4)cc23)cc1	> 100 µM	> 100 µM	> 100 µM	> 100 µM	> 100 µM	> 100 µM	> 100 µM	> 100 µM	> 100 µM	> 100 µM	> 100 µM	> 100 µM	> 100 µM	> 100 µM	> 100 µM	> 100 µM	> 100 µM	> 100 µM	> 100 µM	> 100 µM
CC(C)Cc1ccc(C(C)/C=C2\CCC(CN3CCOCC3)C2=O)cc1 (stereo not given)	15.9 µM	24.3 µM	10.8 µM	39.7 µM	19.3 µM	32.8 µM	15.4 µM	31.3 µM	9.95 µM	7.73 µM	12.3 µM	35.5 µM	33.4 µM	21.8 µM	12.4 µM	35.2 µM	27.7 µM	33.8 µM	32 µM	16.4 µM
CC(C)(C)OC(=O)N1C[C@H](CC(=O)OCc2ccccc2)C[C@H]1C(=O)OCC(Cl)(Cl)Cl	> 50 µM	8.13 µM	> 50 µM	21.5 µM	> 50 µM	> 50 µM	13.6 µM	23 µM	32.9 µM	> 50 µM	> 50 µM	29.1 µM	> 50 µM	11 µM	> 50 µM	> 50 µM	16.1 µM	> 50 µM	25.3 µM	> 50 µM
Cn1c2c(c3c(=O)[nH]ncc31)CCc1ccccc1-2	41.7 µM	35.1 µM	> 100 µM	> 100 µM	> 100 µM	> 100 µM	> 100 µM	57.1 µM	72.2 µM	35 µM	> 100 µM	94.4 µM	> 100 µM	59.1 µM	> 100 µM	78.2 µM	> 100 µM	33.6 µM	88.5 µM	67.3 µM
Cc1cc(C)c2c(=O)n(CN3CCN(c4ccccc4)CC3)sc2n1	76.6 µM	> 100 µM	> 100 µM	> 100 µM	> 100 µM	> 100 µM	32.5 µM	33.9 µM	99.6 µM	44.1 µM	> 100 µM	> 100 µM	> 100 µM	40.7 µM	> 100 µM	> 100 µM	56.2 µM	> 100 µM	> 100 µM	50.7 µM
COc1ccc(-c2cn3c(nc4ccccc43)c(C)n2)cc1	> 100 µM	> 100 µM	> 100 µM	> 100 µM	> 100 µM	39.2 µM	> 100 µM	> 100 µM	> 100 µM	> 100 µM	> 96.6 µM	> 100 µM	> 100 µM	> 64.6 µM	> 100 µM	> 100 µM	> 100 µM	> 100 µM	> 100 µM	> 100 µM
C/C(=N/NC(=S)N1CCCCCC1)c1ccccc1O	11 µM	> 37.7 µM	> 100 µM	> 100 µM	56.7 µM	> 100 µM	> 53.2 µM	> 100 µM	> 40.9 µM	> 78.7 µM	> 100 µM	> 59.5 µM	> 33.9 µM	> 88.3 µM	> 100 µM	> 100 µM	> 100 µM	25.2 µM	> 49.8 µM	> 100 µM
COC(=O)/C=C1/OC(c2ccc(Br)cc2)=C(Br)C1=O	10.8 µM	19.9 µM	7.49 µM	25.2 µM	17.5 µM	38.2 µM	10.7 µM	24.8 µM	9.71 µM	8.4 µM	10.5 µM	34.7 µM	11.6 µM	24.4 µM	6.58 µM	11.7 µM	6.88 µM	36.6 µM	21.5 µM	14.2 µM
C/C=C/C=C/C1=NN(c2cccc(S(=O)(=O)O)c2)C2(C1)C(Cl)C(=O)N2c1nc2ccccc2s1 (stereo not given)	29.4 µM	25.1 µM	43.1 µM	48.2 µM	36.2 µM	33.9 µM	13.3 µM	30.2 µM	24.7 µM	24.5 µM	> 54.8 µM	32 µM	29.2 µM	4.15 µM	> 62.1 µM	34 µM	23.8 µM	31.6 µM	32.7 µM	31.4 µM
Fc1cc(C2=C[C@H](c3ccc4c(c3)OCO4)NC(=S)N2)c(Cl)cc1Cl	> 100 µM	25.9 µM	> 100 µM	> 100 µM	> 100 µM	> 100 µM	> 100 µM	62.7 µM	> 100 µM	> 100 µM	> 100 µM	> 100 µM	> 100 µM	> 100 µM	> 100 µM	> 100 µM	> 100 µM	> 100 µM	95.4 µM	> 100 µM
C[C@@]12C[C@@H](c3ccccc3O1)N1CCSC1=N2	> 100 µM	> 100 µM	> 100 µM	> 100 µM	> 100 µM	> 100 µM	> 100 µM	> 100 µM	> 100 µM	> 100 µM	> 100 µM	> 100 µM	> 100 µM	> 100 µM	> 100 µM	> 100 µM	> 100 µM	> 100 µM	> 100 µM	> 100 µM
CC(=O)OCC1OC(O[C@@H]2C[C@H]3C(C)(C)[C@H](OC(C)=O)CC[C@]3(C)[C@H]3CC[C@@]45C[C@H](O)C[C@H](C)[C@@H]4CC=C5[C@@]32C)C(O)C(O)C1O (stereo not given in full)	14.8 µM	8.65 µM	16.6 µM	15 µM	23.8 µM	22 µM	9.28 µM	5.93 µM	10.6 µM	4.07 µM	17.4 µM	16.1 µM	16.4 µM	26.3 µM	7.66 µM	12.7 µM	10.3 µM	12.5 µM	20.3 µM	25.5 µM
CNC(=S)NNC1=NCCCN1	> 100 µM	> 100 µM	> 100 µM	> 100 µM	> 100 µM	> 100 µM	> 100 µM	> 100 µM	> 100 µM	> 100 µM	> 100 µM	> 100 µM	> 100 µM	> 100 µM	> 100 µM	> 100 µM	> 100 µM	> 100 µM	> 100 µM	> 100 µM
COc1ccc(Cc2nc3cc(Cl)ccc3o2)cc1	> 100 µM	31.1 µM	> 100 µM	> 100 µM	> 100 µM	> 100 µM	> 100 µM	63.8 µM	94.1 µM	> 100 µM	> 100 µM	> 100 µM	> 100 µM	> 100 µM	> 100 µM	64.4 µM	> 100 µM	> 100 µM	> 100 µM	> 100 µM
COc1ccc2cc(-c3ccc(OC)c(OC)c3)c(=O)oc2c1	> 100 µM	> 100 µM	> 100 µM	> 100 µM	> 100 µM	> 100 µM	> 100 µM	> 100 µM	> 100 µM	> 100 µM	> 100 µM	> 100 µM	> 100 µM	> 100 µM	> 100 µM	> 100 µM	> 100 µM	> 100 µM	> 100 µM	> 100 µM
CCN(CC)CC(O)CNc1ccc(NCC(O)CCl)c2c1C(=O)c1ccccc1C2=O (stereo not given)	9.38 µM	22.1 µM	14.4 µM	18.2 µM	25.6 µM	39.1 µM	13.5 µM	26.2 µM	19.3 µM	2.17 µM	20.6 µM	25 µM	16.1 µM	17.9 µM	6.45 µM	23.5 µM	28 µM	12.5 µM	28.3 µM	19.9 µM
